These results are taken from US20250276955A1, “CORONAVIRUS MAIN PROTEASE INHIBITORS AND METHODS USING SAME” (Baylor College of Medicine, priority 2021, published 2025).

Data set [1] concerns the target SARS-COV-2 M^pro-His6 (Severe acute respiratory syndrome coronavirus 2, UniProt P0DTD1). Briefly: biochemical. The format is biochemical. The note with it: 25 nM enzyme, 15 μM fluorescent peptide, Morrison equation; Inactive = less than 50% inhibition at 25 μM compound; read-out: M^pro-His Ki.
Data set [2] addresses SARS-COV-2 M^pro (authentic N- and C-termini) (Severe acute respiratory syndrome coronavirus 2, UniProt P0DTD1). The data set can be described thus: biochemical. The format is biochemical.
Data set [3] addresses SARS-CoV-2 main protease (M^pro) (Severe acute respiratory syndrome coronavirus 2, UniProt P0DTD1). The data set can be described thus: Protein thermal shift stability assay (SYPRO Orange). Type of data set: binding.
Data set [4] can be described thus: Metabolic stability in mouse liver microsomes. Type of data set: in vitro ADME. As to conditions: 0.5 mg protein/mL, 2.0 μM compound, 1.0 mM NADPH. The procedure:
(§1) The samples were collected at specific time-points 0, 30, and 60 min in duplicate. The reactions were terminated by adding an equivalent volume of ice-cold methanol and vortexed. […] Three μL of the supernatant was analyzed by UHPLC-Q Exactive Orbitrap MS (Thermo Fisher Scientific, USA) equipped with 50 mm×4.6 mm column (XDB C-18, Agilent Technologies, USA). The column temperature was maintained at 40° C. The flow rate was at 0.3 mL/min with a 30% mobile phase (acetonitrile containing 0.1% formic acid). Q Exactive MS was operated in positive mode with electrospray ionization. Ultra-pure nitrogen was applied as the sheath (45 arbitrary unit), auxiliary (10 arbitrary unit), sweep (1.0 arbitrary unit) and the collision gas. […] MS data were acquired from 80 to 1,200 Da in profile mode.
On the technique in general: Liver microsomes are a subcellular fraction often used to study metabolism.

Data set [5] in a line: Metabolic stability in human liver microsomes. Type of data set: in vitro ADME. The procedure: as §1
For data set [6], the system named is HepG2 cells. The data set can be described thus: HepG2 cell uptake assay. The format is in vitro ADME. The note with it: 10 μM, 2 hours. The procedure:
The HepG2 cells maintained in DMEM (containing 1 g/L glucose, 10% fetal bovine serum and 1% penicillin/streptomycin) were seeded in a 12-well plate (a final density of 5×10^5/well) for cell uptake assay and 96-well plate for cytotoxicity assay (a final density of 5×10^4/well). The plate was incubated at 37° C. for 24 h.
The cells in 12-well plate were treated with CDD-1713 or CDD-1976 (final concentration: 10 μM). The plate was incubated at 37° C. for another 2 hr. The medium in the plate was decanted and the cells were rinsed with 1 mL of 1×DPBS for three times. 0.5 mL of 0.25% Trypsin was added into each well and incubated for 3.5 min (at 37° C.). 1 mL of complete medium was added into each well to quench the reaction. After spinning at 350×g for 5 min, the cell pellet was reconstituted in MeOH/H2O (v/v 1/1) and CDD-1713 or CDD-1976 was extracted from 100 μL of the resulting mixture with 100 μL of ice-cold methanol. The mixtures were centrifuged at rcf 15,000 for 15 min. Three μL of the supernatant was analyzed by UHPLC-Q Exactive Orbitrap MS (Thermo Fisher Scientific, USA) equipped with 50 mm×4.6 mm column (XDB C-18, Agilent Technologies, USA). The column temperature was set at 40° C. Ultra-pure nitrogen was applied as the sheath (45 arbitrary unit), auxiliary (10 arbitrary unit), sweep (1.0 arbitrary unit) and the collision gas. […]

The nature of data set [7]: Plasma stability assay, human plasma. The format is in vitro ADME. As to conditions: 10 μM, 37° C., after 2 h incubation. On the procedure:
(§2) Compound CDD-1713 and CDD-1976 were incubated in human and mouse plasma respectively at a concentration of 10 μM in duplicate (n=2) at 37° C. At time-points of 0, 30, 60 and 120 min, 15 μL of sample were taken out and the reactions terminated by adding 75 μL of ice-cold methanol. The reaction mixtures were then vortexed for 30 sec and centrifuged at rcf 15,000 for 15 min. Following centrifugation, 3 μL of the supernatant was analyzed using UHPLC-Q Exactive Orbitrap MS. The percentage of test compound remaining at the individual time points relative to the 0 min sample was then determined.

Data set [8] is described as follows: Plasma stability assay, mouse plasma. The format is in vitro ADME. As to conditions: 10 μM, 37° C., after 2 h incubation. The procedure: as §2
Data set [9] relates to SARS-COV-2 (USA_WA1/2020 isolate) in VERO E6 cells. The data set can be described thus: Real-Time Cell Analysis (RTCA) assay of SARS-COV-2 replication. Type of data set: cell-based.
Data set [10] relates to HepG2 cells. Briefly: HepG2 cytotoxicity assay (XTT). As to conditions: 100 μM. Background: Formazan colour is commonly taken as a measure of viable cells.

Entries after “also recorded” stand apart in the source; their conditions may differ.

The Ki is a measure of affinity in units of concentration, obtained from inhibition or displacement. As a reminder, the IC50 is the concentration at which inhibition is half-maximal. For the compound `CN(C)C(=O)COc1ccc(-c2cccc3[nH]ncc23)cc1C=O` [CDD-1976], the Ki in [1] is 37 ± 4 nM; in data set [2] (25 nM enzyme, 15 μM fluorescent peptide, Morrison equation, Inactive = less than 50% inhibition at 25 μM compound, read-out: M^pro Ki), 42 ± 5 nM. The “M^pro inhibition (in words)” value in data set [2] is “better inhibition compared to CDD-1713”. Further, the “stabilization of M^pro in thermal shift assay (in words)” value in data set [3] was “stabilized; also recorded: concentration-dependent stabilization; also recorded: most pronounced temperature shift”. Further, in data set [4], the “MLM t1/2 (half-life)” value is 10.2. The “HLM t1/2 (half-life)” value in data set [5] (0.5 mg protein/mL, 2.0 μM compound, 1.0 mM NADPH) is listed as 41.4. Further, the “metabolic stability in human liver microsomes (in words)” value in [5] (human, microsomes) was “more stable”. Moreover, the “cell permeability in HepG2 uptake assay (in words)” value in [6] is listed as “moderate cell permeability”. For the same compound, the “compound remaining in human plasma” value in data set [7] came out at 80%. The “compound remaining in mouse plasma” value in data set [8] turned out to be 80%. The IC50 in data set [9] (Severe acute respiratory syndrome coronavirus 2, Vero C1008, 75 h, read-out: IC50, inhibition of SARS-COV-2 induced cell death (RTCA)) came to 2500 nM. Also, in [9] (VERO E6 cells, 75 h), the “prevention of SARS-COV-2 induced cell death (in words)” value was “reduced cell death in a dose-dependent manner”. In addition, the “cytotoxicity in HepG2 cells (in words)” value in [10] is given as “no obvious cytotoxicity”.
